Reference: US20230278972A1, “SUBSTITUTED HALOALKYL SULFONANILIDE HERBICIDES” (FMC Corporation, priority 2020, published 2023)

Assays:
Format in all cases: in vivo
[1] = tested on: goosegrass (Eleusine indica); assay: Test A1 preemergence, goosegrass
Summary of the method: (§1)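 Plants grown in pots of loam/sand mix; preemergence = soil-directed spray on seeded pots, postemergence = spray at 1–2 leaves, height 2–10 cm; test chemicals formulated in non-phytotoxic solvent with surfactant.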

[2] = tested on: rice (Oryza sativa); assay: Test B1 flooded paddy test, rice; details: 250 g ai/ha, Flood, applied to paddy water, 2-leaf stage, visually evaluated after 10 to 14 days
Excerpt: A dash (-) response means no test result.

[3] = tested on: corn (Zea mays); assay: Test A1 preemergence, corn
Summary of the method: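 Seeds were first planted into a blend of loam soil and sand and given a preemergence directed soil spray. In parallel, pots of the same soil were sown for postemergence application once plants reached 2 to 10 cm and the one- to two-leaf stage. Both used surfactant-containing non-phytotoxic solvent formulations.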

[4] = tested on: wheat (Triticum aestivum); assay: Test A1 preemergence, wheat
Summary of the method: as §1

[5] = tested on: kochia (Bassia scoparia); assay: Test A1 postemergence, kochia; details: for Kochia plant response rating: postemergence; for Plant response rating, Kochia: Postemergence
Summary of the method: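 Herbicidal response was scored on plants treated either preemergence, by directed spray onto soil of a loam–sand blend after sowing, or postemergence on potted plants at the one- to two-leaf stage, 2–10 cm high. Test chemicals were carried in a non-phytotoxic solvent mix with surfactant.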

[6] = 31 g ai/ha, 0 to 100 scale (0 no effect, 100 complete control)
[7] = 125 g ai/ha, 0 to 100 scale, 0 no effect, 100 complete control
[8] = 125 g ai/ha, 0 to 100 scale (0 no effect, 100 complete control), 10 days
[9] = 125 g ai/ha, 0 to 100 scale (0 no effect, 100 complete control)

SMILES	Plant response rating, Goosegrass [1, 6]	Plant response rating, Goosegrass [1, 7]	Plant response rating, Rice (0 to 100 scale, 0 is no effect, 100 is complete control) [2]	Plant response rating, Corn [3, 6]	Plant response rating, Corn [3, 7]	Plant response rating, Wheat [4, 6]	Plant response rating, Wheat [4, 7]	Kochia plant response rating [5, 6]	Plant response rating, Kochia ([5]; 125 g ai/ha, 0 to 100 scale)	Plant response rating, Kochia [5, 8]	Plant response rating, Kochia ([5]; 31 g ai/ha, 0 to 100 scale (0 no effect, 100 complete control), 10 days)	Plant response rating, Goosegrass [1, 9]	Plant response rating, Wheat [4, 9]
Cc1c(C(=O)N2C[C@@H](C)O[C@H](C)C2)cc(N(COC(=O)C(C)(C)C)S(=O)(=O)C(F)(F)F)c(C)c1C (relative stereo) [Compound 373]	30	100	20	0	20	0	20	0	10	–	–	–	–
Cc1cc(Cl)c(NS(=O)(=O)C(F)(F)F)cc1N1CCC2(CCCCC2)C1=O [Compound 393]	100	100	0	0	80	40	60	20	–	60	–	–	–
COC1CCN(C(=O)c2cc(N(COC(=O)C(C)(C)C)S(=O)(=O)C(F)(F)F)c(C)c(C)c2C)CC1 [Compound 370]	30	90	25	0	0	0	10	0	20	–	–	–	–
Cc1c(C(=O)N2CCSCC2)cc(N(COC(=O)C(C)(C)C)S(=O)(=O)C(F)(F)F)c(C)c1C [Compound 285]	0	70	0	0	10	0	20	–	90	–	10	–	–
Cc1cc(C)c(N(COC(=O)C(C)(C)C)S(=O)(=O)C(F)(F)F)cc1C1=NOC(C(C)C)C1 (centres unmarked) [Compound 383]	0	80	10	0	0	20	20	20	–	20	–	–	–
Cc1cc(C)c(C2=NOC3OCCCC23)cc1NS(=O)(=O)C(F)(F)F (centres unmarked) [Compound 372]	90	100	10	0	10	10	30	0	0	–	–	–	–
Cc1cc(C)c(N2Cc3cccc(C)c3C2=O)cc1NS(=O)(=O)Cl [Compound 408]	100	–	65	40	90	–	–	60	–	60	–	100	100
Cc1cc(C)c(N2CC3(CCCCC3)CC2=O)cc1NS(=O)(=O)C(F)(F)F [Compound 392]	40	100	0	10	10	0	50	10	–	20	–	–	–
CCc1cc(C)c(N(COC(=O)C(C)(C)C)S(=O)(=O)C(F)(F)F)cc1C1=NOC2CCCC12 (centres unmarked) [Compound 378]	20	50	10	0	0	10	20	0	60	–	–	–	–
COC1CCC2(CC1)CCN(c1cc(NS(=O)(=O)C(F)(F)F)c(C)cc1C)C2=O (centres unmarked) [Compound 398]	100	100	30	0	60	20	90	20	–	70	–	–	–
